Measured values reported in ChEMBL document CHEMBL1201862, “PubChem BioAssay data set” (2004).
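Step 1: Grow cells in 96-well plates. Step 2: Expose to compound for 48 hours at 5 concentrations. Step 3: Interpolate endpoints linearly; if unreached, use highest concentration. GI50 = concentration required for 50% inhibition of growth.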 Calls of active or inactive are those of the source. No stated cut-off is given here; in the data, active = GI50 up to about 1.1 µM and inactive = higher.

Legend:
Test in all cases: DTP human tumour cell line panel, 48 h
HOP-92 = tested on: HOP-92
HL-60 = tested on: HL-60
SW-620 = tested on: SW-620
IGROV-1 = tested on: IGROV-1
SF-295 = tested on: SF-295
U-251 = tested on: U-251
SR = tested on: SR
HOP-62 = tested on: HOP-62
HCT-15 = tested on: HCT-15
EKVX = tested on: EKVX
TK-10 = tested on: TK-10
MOLT-4 = tested on: MOLT-4
LOX IMVI = tested on: LOX IMVI
T47D = tested on: T47D
SNB-75 = tested on: SNB-75
M14 = tested on: M14
MDA-MB-435 = tested on: MDA-MB-435
HT-29 = tested on: HT-29
SN12C = tested on: SN12C
A549 = tested on: A549

Row | Structure (SMILES) | GI50 (HOP-92) | GI50 (HL-60) | GI50 (SW-620) | GI50 (IGROV-1) | GI50 (SF-295) | GI50 (U-251) | GI50 (SR) | GI50 (HOP-62) | GI50 (HCT-15) | GI50 (EKVX) | GI50 (TK-10) | GI50 (MOLT-4) | GI50 (LOX IMVI) | GI50 (T47D) | GI50 (SNB-75) | GI50 (M14) | GI50 (MDA-MB-435) | GI50 (HT-29) | GI50 (SN12C) | GI50 (A549)
1 | O=[N+]([O-])C1=Cc2c(O)ccc(O)c2C2OC=CC12 (stereo not given) | 22.3 µM (inactive) | 8.59 µM (inactive) | 30 µM (inactive) | 19.4 µM (inactive) | 16.3 µM (inactive) | 16.1 µM (inactive) | 23 µM (inactive) | 18.3 µM (inactive) | 18.5 µM | 19.5 µM (inactive) | 16.6 µM (inactive) | 3.6 µM (inactive) | 15.7 µM (inactive) | 17.4 µM (inactive) | 21.6 µM (inactive) | 18 µM (inactive) | 2.4 µM (inactive) | 19.6 µM (inactive) | 18.2 µM (inactive) | 21 µM (inactive)
2 | CC[C@@]1(O)C(=O)OCc2c1cc1n(c2=O)Cc2c-1nc1ccc(O)cc1c2CC[Si](C)(C)C | 0.0682 µM (active) | < 0.001 µM (active) | 0.00438 µM (active) | 0.0248 µM (active) | 0.00131 µM (active) | < 0.001 µM (active) | < 0.001 µM (active) | < 0.001 µM (active) | 0.102 µM | 0.041 µM (active) | 0.0385 µM (active) | < 0.001 µM (active) | < 0.001 µM (active) | < 0.001 µM (active) | < 0.001 µM (active) | < 0.001 µM (active) | 0.00766 µM (active) | 0.012 µM (active) | < 0.001 µM (active) | 0.00366 µM (active)
3 | COC1=CC(=O)C(C2CC(=O)c3c(O)cc(O)cc3O2)=CC1=O (stereo not given) | 7.55 µM (inactive) | 2 µM (inactive) | 20.2 µM (inactive) | 19.1 µM (inactive) | 19.2 µM (inactive) | 18.5 µM (inactive) | 5.74 µM (inactive) | 17.1 µM (inactive) | 23.3 µM | 16.6 µM (inactive) | 16.9 µM (inactive) | 1.96 µM (inactive) | 16.3 µM (inactive) | 14.4 µM (inactive) | 23.6 µM (inactive) | 17.7 µM (inactive) | 16.2 µM (inactive) | > 45.1 µM (inactive) | 19.8 µM (inactive) | 39.9 µM (inactive)
4 | COP(=O)(OC)C(O)/C=C(\Cl)c1ccc(Cl)cc1 (stereo not given) | 18.9 µM (inactive) | 32.9 µM (inactive) | 38.8 µM (inactive) | > 100 µM (inactive) | > 100 µM (inactive) | 53.2 µM (inactive) | 21.3 µM (inactive) | 28.4 µM (inactive) | 25.9 µM | > 100 µM (inactive) | > 100 µM (inactive) | 28.1 µM (inactive) | 19.6 µM (inactive) | 25.3 µM (inactive) | > 100 µM (inactive) | 62.1 µM (inactive) | 40.7 µM (inactive) | > 100 µM (inactive) | 40.7 µM (inactive) | > 100 µM (inactive)
5 | CC1=CC(O)CC(C)(C)C1/C=C/C(C)=C/C=C/C(C)=C/C=C/C=C(C)/C=C/C=C(C)/C=C/C1=C(C)CC(O)CC1(C)C (stereo not given) | 21.4 µM (inactive) | 51.6 µM (inactive) | 19.1 µM (inactive) | 26.5 µM (inactive) | 23.9 µM (inactive) | – | 15.7 µM (inactive) | – | 19.7 µM | 79.3 µM (inactive) | 57.8 µM (inactive) | 20.9 µM (inactive) | 56.1 µM (inactive) | 20 µM (inactive) | 26.5 µM (inactive) | 13.8 µM (inactive) | 17.5 µM (inactive) | 14.9 µM (inactive) | – | 35.6 µM (inactive)
6 | CC(C)CC1c2[nH]c3ccccc3c2C[C@H]2C(=O)NC(COC(C)(C)C)C(=O)N12 (stereo not given in full) | 31.8 µM (inactive) | 26.4 µM (inactive) | 31 µM (inactive) | 23.3 µM (inactive) | 17.3 µM (inactive) | 20.4 µM (inactive) | 16.4 µM (inactive) | 46.2 µM (inactive) | 26.9 µM | 24.9 µM (inactive) | 23 µM (inactive) | 22.2 µM (inactive) | 17.3 µM (inactive) | 13.2 µM (inactive) | – | 20.8 µM (inactive) | 20.5 µM (inactive) | 20.9 µM (inactive) | 21.2 µM (inactive) | 31.9 µM (inactive)
7 | CSC(=S)CC(O)[C@@H]1CC2c3ccccc3C1c1ccccc12 (stereo not given in full) | 17.4 µM (inactive) | 2.54 µM (inactive) | 4.81 µM (inactive) | 11.8 µM (inactive) | 16.6 µM (inactive) | 3.55 µM (inactive) | 3.46 µM (inactive) | 15.7 µM (inactive) | 9.73 µM | – | 15.2 µM (inactive) | 1.49 µM (inactive) | 6.35 µM (inactive) | 5.5 µM (inactive) | > 10 µM (inactive) | 12.7 µM (inactive) | 11.3 µM (inactive) | 4.33 µM (inactive) | 18.7 µM (inactive) | 17.1 µM (inactive)
8 | c1coc(-c2nccc3c2[nH]c2ccccc23)c1 | 35 µM (inactive) | > 100 µM (inactive) | > 100 µM (inactive) | > 100 µM (inactive) | > 100 µM (inactive) | > 100 µM (inactive) | > 100 µM (inactive) | > 100 µM (inactive) | > 100 µM | > 100 µM (inactive) | > 100 µM (inactive) | > 100 µM (inactive) | > 100 µM (inactive) | > 100 µM (inactive) | – | > 100 µM (inactive) | > 100 µM (inactive) | > 100 µM (inactive) | > 100 µM (inactive) | > 100 µM (inactive)
9 | CC1CCC2(CC1)N=C1CCC(C)CC1C1(CCC(C)CC1)N2 (stereo not given) | > 100 µM (inactive) | 43.8 µM (inactive) | 79.3 µM (inactive) | > 100 µM (inactive) | > 100 µM (inactive) | 78.7 µM (inactive) | 50.8 µM (inactive) | – | 84.7 µM | > 10 µM (inactive) | > 100 µM (inactive) | 25.9 µM (inactive) | > 100 µM (inactive) | 67.3 µM (inactive) | 19.6 µM (inactive) | > 100 µM (inactive) | > 100 µM (inactive) | 86.7 µM (inactive) | – | > 100 µM (inactive)
10 | O=c1c(Cc2c(O)ccc3ccccc23)nnc2sc(-c3nn4c(=O)c(Cc5c(O)ccc6ccccc56)nnc4s3)nn12 | 38.1 µM (inactive) | 30.8 µM (inactive) | > 100 µM (inactive) | > 100 µM (inactive) | – | 26.2 µM (inactive) | > 100 µM (inactive) | 28.5 µM (inactive) | > 100 µM | 29.2 µM (inactive) | 37.3 µM (inactive) | > 10 µM (inactive) | > 100 µM (inactive) | 37.2 µM (inactive) | 9.2 µM (inactive) | > 100 µM (inactive) | > 100 µM (inactive) | > 100 µM (inactive) | > 100 µM (inactive) | > 100 µM (inactive)
11 | COc1ccc(C2C3CCc4ccccc4C3=NN2S(=O)(=O)c2cccc(C(=O)O)c2OC)cc1 (stereo not given) | 15.7 µM (inactive) | 7.53 µM (inactive) | 6.98 µM (inactive) | 1.09 µM (active) | 9.23 µM (inactive) | 7.21 µM (inactive) | 3.8 µM (inactive) | 21 µM (inactive) | 0.24 µM | 15 µM (inactive) | 22.9 µM (inactive) | 9.02 µM (inactive) | 12.7 µM (inactive) | 4.83 µM (inactive) | – | 15.8 µM (inactive) | 1.79 µM (inactive) | 5 µM (inactive) | 27.3 µM (inactive) | 10.1 µM (inactive)
12 | CCc1c(CNc2ccc(C(=O)NC(CC(=O)O)C(=O)O)cc2)ccc2nc(N)nc(N)c12 (stereo not given) | 6.44 µM (inactive) | < 0.0316 µM (active) | < 0.0138 µM (active) | < 0.0177 µM (active) | 0.0371 µM (active) | – | < 0.01 µM (active) | 0.267 µM (active) | < 0.0164 µM | > 54.6 µM (inactive) | 15.3 µM (inactive) | < 0.0182 µM (active) | < 0.0162 µM (active) | 20.5 µM (inactive) | 3.52 µM (inactive) | < 0.01 µM (active) | < 0.01 µM (active) | < 0.0178 µM (active) | < 0.0288 µM (active) | < 0.0169 µM (active)
13 | O=CC1OC(=O)c2cc(O)c(O)c(O)c2-c2c(cc(O)c(O)c2O)C(=O)OC1C1OC(=O)c2cc(O)c(O)c(O)c2-c2c(O)c(O)c3oc(=O)c4c(c(O)c(O)c5oc(=O)c2c3c54)-c2c(cc(O)c(O)c2O)C(=O)OCC1O (stereo not given) | 16.6 µM (inactive) | 20.9 µM (inactive) | 19.3 µM (inactive) | 39.4 µM (inactive) | 18.7 µM (inactive) | 17.9 µM (inactive) | 39.7 µM (inactive) | 44.3 µM (inactive) | 15.7 µM | 16.9 µM (inactive) | – | 26.1 µM (inactive) | 11.2 µM (inactive) | 43.1 µM (inactive) | 13.9 µM (inactive) | 24.5 µM (inactive) | 22.3 µM (inactive) | 13.4 µM (inactive) | 16.6 µM (inactive) | 24.9 µM (inactive)
14 | Cn1cc(S(=O)(=O)NC(=O)Nc2ccc(Cl)cc2)c(=O)c2ccc(F)cc21 | > 100 µM (inactive) | > 100 µM (inactive) | > 100 µM (inactive) | > 100 µM (inactive) | > 100 µM (inactive) | > 100 µM (inactive) | > 100 µM (inactive) | > 100 µM (inactive) | > 100 µM | > 100 µM (inactive) | > 100 µM (inactive) | > 100 µM (inactive) | 22.6 µM (inactive) | > 100 µM (inactive) | > 100 µM (inactive) | – | > 100 µM (inactive) | > 100 µM (inactive) | > 100 µM (inactive) | > 100 µM (inactive)
15 | c1ccc(-c2cc(-c3cccs3)c(-c3cccs3)s2)cc1 | > 100 µM (inactive) | 25.5 µM (inactive) | 33.7 µM (inactive) | > 100 µM (inactive) | 80 µM (inactive) | 78.7 µM (inactive) | 18.9 µM (inactive) | > 100 µM (inactive) | 22.8 µM | 81.8 µM (inactive) | 32.2 µM (inactive) | 21.2 µM (inactive) | – | 4.5 µM (inactive) | 20 µM (inactive) | 18.9 µM (inactive) | 27.1 µM (inactive) | 55.7 µM (inactive) | 85.9 µM (inactive) | –
